Measurements as given in PubChem BioAssay (NCI).
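96-well plates; 48 h exposure; 5 concentrations. Endpoints by linear interpolation between flanking doses. Not reached: highest tested concentration assigned. GI50 marks 50% less growth. TGI denotes the concentration required for complete inhibition of growth.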

Columns and labels:
Test in all cases: inhibition of tumour cell growth, NCI panel, 48 h
OVCAR-5 ovarian = test system: OVCAR-5 ovarian
ACHN renal = test system: ACHN renal
A549 NSCLC = test system: A549 NSCLC
MDA-MB-435 = test system: MDA-MB-435
BT-549 breast = test system: BT-549 breast
A498 renal = test system: A498 renal
HCT-116 colon = test system: HCT-116 colon
SK-MEL-5 melanoma = test system: SK-MEL-5 melanoma
UACC-257 melanoma = test system: UACC-257 melanoma
SK-OV-3 ovarian = test system: SK-OV-3 ovarian
SK-MEL-2 melanoma = test system: SK-MEL-2 melanoma
MCF7 breast = test system: MCF7 breast
NCI-H460 lung = test system: NCI-H460 lung
SR leukemia = test system: SR leukemia
HOP-92 NSCLC = test system: HOP-92 NSCLC
COLO 205 colon = test system: COLO 205 colon
NCI/ADR-RES ovarian = test system: NCI/ADR-RES ovarian
RPMI-8226 leukemia = test system: RPMI-8226 leukemia
U251 CNS = test system: U251 CNS
OVCAR-8 ovarian = test system: OVCAR-8 ovarian
M14 melanoma = test system: M14 melanoma
SW-620 colon = test system: SW-620 colon
IGROV1 ovarian = test system: IGROV1 ovarian
OVCAR-3 ovarian = test system: OVCAR-3 ovarian
HS 578T breast = test system: HS 578T breast
CCRF-CEM leukemia = test system: CCRF-CEM leukemia
786-0 renal = test system: 786-0 renal
MALME-3M melanoma = test system: MALME-3M melanoma
MOLT-4 leukemia = test system: MOLT-4 leukemia
SK-MEL-28 melanoma = test system: SK-MEL-28 melanoma
UO-31 renal = test system: UO-31 renal
NCI-H23 lung = test system: NCI-H23 lung
KM12 colon = test system: KM12 colon
SF-539 CNS = test system: SF-539 CNS
T-47D breast = test system: T-47D breast
HT29 colon = test system: HT29 colon
K-562 leukemia = test system: K-562 leukemia
SF-295 CNS = test system: SF-295 CNS
SN12C renal = test system: SN12C renal
CAKI-1 renal = test system: CAKI-1 renal
HL-60(TB) leukemia = test system: HL-60(TB) leukemia
LOX IMVI melanoma = test system: LOX IMVI melanoma
SNB-19 CNS = test system: SNB-19 CNS
HOP-62 NSCLC = test system: HOP-62 NSCLC
SNB-75 CNS = test system: SNB-75 CNS
HCT-15 colon = test system: HCT-15 colon
DU-145 prostate = test system: DU-145 prostate
PC-3 prostate = test system: PC-3 prostate
TK-10 renal = test system: TK-10 renal
NCI-H226 lung = test system: NCI-H226 lung
RXF 393 renal = test system: RXF 393 renal
SF-268 CNS = test system: SF-268 CNS
UACC-62 melanoma = test system: UACC-62 melanoma
MDA-MB-231 breast = test system: MDA-MB-231 breast
EKVX NSCLC = test system: EKVX NSCLC
OVCAR-4 ovarian = test system: OVCAR-4 ovarian

SMILES: O=[N+]([O-])c1ccc(C(Br)c2ccc([N+](=O)[O-])cc2)cc1
- GI50 (OVCAR-5 ovarian): 17 µM
- TGI (OVCAR-5 ovarian): 34.3 µM
- GI50 (ACHN renal): 11.6 µM
- TGI (ACHN renal): 26.5 µM
- GI50 (A549 NSCLC): 11.1 µM
- TGI (A549 NSCLC): 26.5 µM
- GI50 (MDA-MB-435): 3.44 µM
- TGI (MDA-MB-435): 13.5 µM
- GI50 (BT-549 breast): 15.8 µM
- TGI (BT-549 breast): 30.7 µM
- GI50 (A498 renal): 6.06 µM
- TGI (A498 renal): 23.5 µM
- GI50 (HCT-116 colon): 1.48 µM
- TGI (HCT-116 colon): 4.06 µM
- GI50 (SK-MEL-5 melanoma): 2.04 µM
- TGI (SK-MEL-5 melanoma): 4.9 µM
- GI50 (UACC-257 melanoma): 10.2 µM
- TGI (UACC-257 melanoma): 24.1 µM
- GI50 (SK-OV-3 ovarian): 11 µM
- TGI (SK-OV-3 ovarian): 23 µM
- GI50 (SK-MEL-2 melanoma): 4 µM
- TGI (SK-MEL-2 melanoma): 17.2 µM
- GI50 (MCF7 breast): 4.07 µM
- TGI (MCF7 breast): 18.1 µM
- GI50 (NCI-H460 lung): 16.3 µM
- TGI (NCI-H460 lung): 40.2 µM
- GI50 (SR leukemia): 2.36 µM
- TGI (SR leukemia): 6.73 µM
- GI50 (HOP-92 NSCLC): 2.01 µM
- TGI (HOP-92 NSCLC): 4.99 µM
- GI50 (COLO 205 colon): 11.1 µM
- TGI (COLO 205 colon): 24 µM
- GI50 (NCI/ADR-RES ovarian): 2.37 µM
- TGI (NCI/ADR-RES ovarian): 6.82 µM
- GI50 (RPMI-8226 leukemia): 2.35 µM
- TGI (RPMI-8226 leukemia): 6.75 µM
- GI50 (U251 CNS): 2.31 µM
- TGI (U251 CNS): 6.16 µM
- GI50 (OVCAR-8 ovarian): 2.72 µM
- TGI (OVCAR-8 ovarian): 8.4 µM
- GI50 (M14 melanoma): 1.91 µM
- TGI (M14 melanoma): 4.2 µM
- GI50 (SW-620 colon): 2.89 µM
- TGI (SW-620 colon): 12 µM
- GI50 (IGROV1 ovarian): 1.37 µM
- TGI (IGROV1 ovarian): 3.17 µM
- GI50 (OVCAR-3 ovarian): 11.7 µM
- TGI (OVCAR-3 ovarian): 24.3 µM
- GI50 (HS 578T breast): 17.9 µM
- TGI (HS 578T breast): 53.7 µM
- GI50 (CCRF-CEM leukemia): 2.11 µM
- TGI (CCRF-CEM leukemia): 5.98 µM
- GI50 (786-0 renal): 9.88 µM
- TGI (786-0 renal): 26 µM
- GI50 (MALME-3M melanoma): 2.06 µM
- TGI (MALME-3M melanoma): 5.12 µM
- GI50 (MOLT-4 leukemia): 2.56 µM
- TGI (MOLT-4 leukemia): 6.15 µM
- GI50 (SK-MEL-28 melanoma): 16.6 µM
- TGI (SK-MEL-28 melanoma): 30.5 µM
- GI50 (UO-31 renal): 1.68 µM
- TGI (UO-31 renal): 5.34 µM
- GI50 (NCI-H23 lung): 2.12 µM
- TGI (NCI-H23 lung): 7.14 µM
- GI50 (KM12 colon): 5.09 µM
- TGI (KM12 colon): 18.4 µM
- GI50 (SF-539 CNS): 15.1 µM
- TGI (SF-539 CNS): 31.1 µM
- GI50 (T-47D breast): 1.69 µM
- TGI (T-47D breast): 5.13 µM
- GI50 (HT29 colon): 1.63 µM
- TGI (HT29 colon): 5.2 µM
- GI50 (K-562 leukemia): 3.12 µM
- TGI (K-562 leukemia): 10.5 µM
- GI50 (SF-295 CNS): 13.9 µM
- TGI (SF-295 CNS): 28.9 µM
- GI50 (SN12C renal): 3.07 µM
- TGI (SN12C renal): 11 µM
- GI50 (CAKI-1 renal): 2.11 µM
- TGI (CAKI-1 renal): 4.91 µM
- GI50 (HL-60(TB) leukemia): 8.58 µM
- TGI (HL-60(TB) leukemia): 25.6 µM
- GI50 (LOX IMVI melanoma): 1.65 µM
- TGI (LOX IMVI melanoma): 3.23 µM
- GI50 (SNB-19 CNS): 15 µM
- TGI (SNB-19 CNS): 33.2 µM
- GI50 (HOP-62 NSCLC): 12.5 µM
- TGI (HOP-62 NSCLC): 25.9 µM
- GI50 (SNB-75 CNS): 12.2 µM
- TGI (SNB-75 CNS): 24.7 µM
- GI50 (HCT-15 colon): 1.67 µM
- TGI (HCT-15 colon): 5.26 µM
- GI50 (DU-145 prostate): 15.1 µM
- TGI (DU-145 prostate): 28.6 µM
- GI50 (PC-3 prostate): 3.34 µM
- TGI (PC-3 prostate): 13.5 µM
- GI50 (TK-10 renal): 3.01 µM
- TGI (TK-10 renal): 10.4 µM
- GI50 (NCI-H226 lung): 5.29 µM
- TGI (NCI-H226 lung): 23.7 µM
- GI50 (RXF 393 renal): 12.9 µM
- TGI (RXF 393 renal): 26.1 µM
- GI50 (SF-268 CNS): 4.35 µM
- TGI (SF-268 CNS): 17.7 µM
- GI50 (UACC-62 melanoma): 5.11 µM
- TGI (UACC-62 melanoma): 22 µM
- GI50 (MDA-MB-231 breast): 9.54 µM
- TGI (MDA-MB-231 breast): 25.2 µM
- GI50 (EKVX NSCLC): 14 µM
- TGI (EKVX NSCLC): 28.7 µM
- GI50 (OVCAR-4 ovarian): 2.02 µM
- TGI (OVCAR-4 ovarian): 4.85 µM
